PMC8317065, “UPLC-MS/MS Method for Analysis of Endocannabinoid and Related Lipid Metabolism in Mouse Mucosal Tissue” (Frontiers in Physiology, 2021)

Tests used:
ABHD6 [1] = target: T1, ABHD6 (Mus musculus, UniProt Q8R2Y0); experiment: MAG degradative enzyme activity assay with WWL 70, lung protein isolates; assay type: biochemical; conditions: for MAG metabolism, product recovery (normalized response): lung protein 25 μg, WWL 70 alone
T1 construct: from tissue; host or cells: mouse (C57BL/6J) lung, 800 x g supernatant
T1 sequence (Q8R2Y0 1-336): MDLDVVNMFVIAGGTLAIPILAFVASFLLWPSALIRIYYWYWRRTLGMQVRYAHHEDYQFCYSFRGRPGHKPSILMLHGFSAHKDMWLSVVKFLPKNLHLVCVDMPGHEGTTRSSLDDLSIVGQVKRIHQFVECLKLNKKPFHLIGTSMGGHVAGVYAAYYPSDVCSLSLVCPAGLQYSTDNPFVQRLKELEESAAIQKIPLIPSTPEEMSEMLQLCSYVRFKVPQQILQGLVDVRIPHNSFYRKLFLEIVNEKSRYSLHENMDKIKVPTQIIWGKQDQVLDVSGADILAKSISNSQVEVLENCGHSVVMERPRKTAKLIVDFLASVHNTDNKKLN
Method: (§1) Homogenized samples were centrifuged at 800 × g for 15 m at 4°C. The supernatant was collected in a 2.0 mL centrifuge tube and sonicated twice for 10 s. Samples underwent two sequential freeze thaw cycles using liquid N2. Samples were again centrifuged at 800 × g, 15 min, 4°C and the supernatant was collected. Total protein was then quantified via BCA assay and normalized between all samples. Protein isolations for each assay and each tissue were performed separately.
Substrate solutions were prepared by drying stock 19:2 MAG (50 nmol/reaction) under N2 steam and adding fatty acid free BSA (0.25%) and stock 50 mM Tris–HCl (pH = 8.0). The MGL substrate solution was then sonicated for 60 min while protein samples were prepared. […] MGL substrate solution was added to normalized protein (400 μL; 500 μL final volume) samples and incubated in a water bath at 37°C for 10 min (jejunum protein) or 30 min (lung protein). The reaction was stopped using 1.0 mL of chilled methanol containing the internal standard 17:1 FFA (5 nmol/reaction) and placed on ice. The products of the reaction were extracted via lipid extraction methods (see section “Lipid Extraction for Enzyme Assays”) and quantified via UPLC-MS/MS (see section “Quantitation of MAG Degradative Enzyme Activity Assay Products”).
Lipids were extracted using liquid-liquid extraction with chloroform (2.0 mL) followed by 0.8 mL 0.2-micron ultra-purified water. Samples were centrifuged (1500 × g, 5 min, 4°C) and the lower organic phase was collected. The samples were further purified, as previously described ([Batugedara et al., 2018]), via open-bed silica gel column chromatography which was washed with a 9:1 chloroform:methanol mixture to elute MAGs, FAEs, and FFAs for collection. Eluates were dried under N2 steam (99.998% pure) and resuspended in 0.2 mL of methanol:chloroform (1:1). Products were detected and quantified via UPLC-MS/MS techniques (see section “UPLC-MS/MS Detection of Analytes”).
Data was acquired using equipment described above (see section “UPLC-MS/MS Detection of Analytes”) and eluted by a gradient of water and methanol (containing 0.25% acetic acid, 5 mM ammonium acetate) at a flow rate of 0.4 mL/min and gradient: 90% methanol 0.0–0.1 min, 90–100% methanol 0.1–2.0 min, 100% methanol 2.0–2.1 min, 100–90% methanol 2.1–2.2 min, and 90% methanol 2.2–2.5 min. […] Lipids were quantified using a dilution series detecting deprotonated molecular ions in selected ion reading (SIR) mode (variable amounts of product 19:2 FFA versus fixed amount of internal standard 17:1 FFA). Extracted ion chromatograms for SIR masses were used to quantify analytes: 19:2 FFA (m/z = 293.2) product of MGL enzyme assay and 17:1 FFA (m/z = 267.2) as internal standard. Signal to noise ratio was >10 for all quantitated results.

ABHD6 [2] = tested on: ABHD6; parameters: method as in Li et al., 2007; conditions: fibroblast cell line; ref Li et al., 2007; read-out: IC50 reported for a fibroblast cell line; cited from earlier work
MGL and ABHD6 = experiment: MAG degradative enzyme activity assay with JZL 184 and WWL 70 together, lung protein isolates; assay type: biochemical; conditions: mouse lung
Method: as §1
Substrate solutions were prepared by drying stock 19:2 MAG (50 nmol/reaction) under N2 steam and adding fatty acid free BSA (0.25%) and stock 50 mM Tris–HCl (pH = 8.0). The MGL substrate solution was then sonicated for 60 min while protein samples were prepared. […] MGL substrate solution was added to normalized protein (400 μL; 500 μL final volume) samples and incubated in a water bath at 37°C for 10 min (jejunum protein) or 30 min (lung protein). […] The products of the reaction were extracted via lipid extraction methods (see section “Lipid Extraction for Enzyme Assays”) and quantified via UPLC-MS/MS (see section “Quantitation of MAG Degradative Enzyme Activity Assay Products”).
Lipids were extracted using liquid-liquid extraction with chloroform (2.0 mL) followed by 0.8 mL 0.2-micron ultra-purified water. […] Products were detected and quantified via UPLC-MS/MS techniques (see section “UPLC-MS/MS Detection of Analytes”). […]

FAAH [3] = target: T2, FAAH (Mus musculus, UniProt O08914); experiment: FAAH (FAE degradative enzyme) activity assay, UPLC-MS/MS, jejunum epithelium protein isolates; assay type: biochemical; conditions: jejunum epithelium protein 50 μg
T2 construct: from tissue; host or cells: mouse (C57BL/6J) lung, 21,100 x g pellet
T2 sequence (O08914 1-579): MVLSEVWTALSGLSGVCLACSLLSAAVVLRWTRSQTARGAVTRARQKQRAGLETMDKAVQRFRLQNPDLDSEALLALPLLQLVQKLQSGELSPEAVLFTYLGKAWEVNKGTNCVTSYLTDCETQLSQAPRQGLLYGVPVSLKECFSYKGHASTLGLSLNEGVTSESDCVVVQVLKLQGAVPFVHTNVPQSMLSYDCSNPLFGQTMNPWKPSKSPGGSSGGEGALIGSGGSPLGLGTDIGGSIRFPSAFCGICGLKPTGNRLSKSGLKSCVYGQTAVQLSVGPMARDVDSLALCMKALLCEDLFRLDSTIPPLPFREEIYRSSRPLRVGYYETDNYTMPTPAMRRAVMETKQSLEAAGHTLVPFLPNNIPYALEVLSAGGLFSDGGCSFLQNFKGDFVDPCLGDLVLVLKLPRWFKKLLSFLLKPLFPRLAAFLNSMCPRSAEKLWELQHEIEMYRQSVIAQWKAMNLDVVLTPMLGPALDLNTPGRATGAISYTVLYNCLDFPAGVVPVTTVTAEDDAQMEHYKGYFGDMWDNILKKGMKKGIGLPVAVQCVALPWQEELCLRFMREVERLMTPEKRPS
Method: (§2) Homogenized samples were centrifuged at 21,100 × g for 30 min at 4°C. The supernatant was discarded, and the pellets were resuspended in 750 μL of chilled 1x PBS (pH = 7.0). To ensure homogenous solution, lung samples were further homogenized using a sonic dismembranator using 8–10 root mean square (RMS) Watts of output power. Total protein was then quantified via BCA assay and normalized between all samples. Alternative protein isolation methods were required for FAAH isolation due to its subcellular localization to membranes of cytoplasmic organelles ([Gulyas et al., 2004]).
(§3) Substrate solutions were prepared by drying stock [^2H4]-PEA (5 nmol/reaction) under N2 steam and adding fatty acid free BSA (0.25%) and stock 50 mM Tris–HCl (pH = 8.0). The substrate solution was then bath sonicated for 60 min while protein samples were prepared. […] The products of the reaction were extracted via lipid extraction methods (see section “Lipid Extraction for Enzyme Assays”) and quantified via UPLC-MS/MS (see section “Quantitation of FAE Degradative Enzyme Activity”).
(§4) Lipids were extracted using liquid-liquid extraction with chloroform (2.0 mL) followed by 0.8 mL 0.2-micron ultra-purified water. […] Products were detected and quantified via UPLC-MS/MS techniques (see section “UPLC-MS/MS Detection of Analytes”).

FAAH [4] = target: T2, FAAH; experiment: FAAH activity assay, UPLC-MS/MS, lung protein isolates; assay type: biochemical; conditions: lung protein 10 μg
Method: as §2, §3, §4

FAAH [5] = tested on: FAAH; parameters: method as in Piomelli et al., 2006; conditions: rat brain membranes; ref Piomelli et al., 2006; read-out: IC50 reported for rat brain membranes; cited from earlier work
[6] = highest inhibitor concentration of range (1,000 nM)
[7] = lowest inhibitor concentration of range (3 nM)

Structure (SMILES): CN(Cc1cccc(-c2ccncc2)c1)C(=O)Oc1ccc(-c2ccc(C(N)=O)cc2)cc1 [WWL 70]
- MAG metabolism, product recovery (normalized response) (ABHD6 [1]; highest concentration of range (10,000 nM)): 33.07 ± 1.72%
- MAG metabolism, product recovery (normalized response) (ABHD6 [1]; lowest concentration of range (3 nM)): 87.89 ± 13.69%
- IC50 (ABHD6 [1]; mouse lung protein isolates 25 μg, WWL 70 3-10,000 nM alone, inhibition incomplete, read-out: IC50, inhibition of MAG metabolism (ABHD6 activity)): 780 nM
- blockade of MAG degradation, maximum (ABHD6 [1]; protein isolates from lungs of healthy male mice, concentration-dependent): up to 66%

Structure (SMILES): O=C(Oc1ccc([N+](=O)[O-])cc1)N1CCC(C(O)(c2ccc3c(c2)OCO3)c2ccc3c(c2)OCO3)CC1 [JZL 184]
- MAG metabolism (normalized response) (MGL and ABHD6; 10 μM WWL 70 plus JZL 184, highest concentration of range (10,000 nM)): 22.32 ± 2.73%
- MAG metabolism (normalized response) (MGL and ABHD6; 10 μM WWL 70 plus JZL 184, lowest concentration of range (3 nM)): 94.25 ± 6.64%

Structure (SMILES): NC(=O)c1cccc(-c2cccc(OC(=O)NC3CCCCC3)c2)c1 [URB597]
- FAAH activity (normalized response) (FAAH [3]; [6]): 7.37 ± 0.001%
- FAAH activity (normalized response) (FAAH [3]; [7]): 94.95 ± 7.89%
- FAE metabolism (normalized response) (FAAH [4]; [6]): 4.15 ± 0.46%
- FAE metabolism (normalized response) (FAAH [4]; [7]): 90.11 ± 8.58%
